What all share (assay type): cell-based
The test system of assay [1] is human mesenchymal stem cells (hMSC). The assay is described as follows: Cell proliferation of hMSCs depending on the culture conditions. To be noted: for effect on cell proliferation (number of MSCs): whatever the conditions / FBS concentration (2% or 10% FBS); for number of MSC: add-on of ATRA (from J5). The source says: Adult human bone marrow mononuclear cells Ficoll-extracted from two donors were obtained from Lonza. Cells were passaged once a week. The human mesenchymal stem cells (hMSC) were selected by plastic adherence and expanded by plating 50 000 cells/cm^2 in Modified Eagle Medium Alpha (MEMalpha, MacoPharma) supplemented with 10% Fetal Bovine Serum (FBS, PAA Laboratoires) and 0.1% Penicilline/Streptomycine (P/S, Lonza). The culture medium was changed after 3 days and then every day. After 2 to 5 weeks of culture at 37° C. in a humid environment and under 5% CO2, hMSC were harvested by trypsinization. The phenotype was confirmed by FACS analysis (BD Bioscience, BD LSR II) with CD73, CD90 and CD105 (positive), as well as CD34 and CD45 (negative) (Table 1).
(§1) To investigate the neural differentiation capacity of the peptides, 25 cm^2 flasks and 12-wells culture plates were coated with sterile aqueous solutions of either NX210 or NS640 at a concentration of 80 μg/cm^2. Coatings were carried out at 37° C. and 5% CO2 over-night prior to cell plating.
On Day 0 (D0), hMSC were seeded at a concentration of 3,000 cells/cm^2 in pre-coated 25 cm^2 flasks or 12-well culture plates in complete medium and culture was placed at 37° C. in a humid environment and under 5% CO2. After 24h, medium was changed and replaced by different combinations of media containing either: MEMalpha—bFGF 12.5 ng/mL—FBS 2%—P/S 0.1%; MEMalpha—bFGF 12.5 ng/mL—FBS 10%—P/S 0.1%; MEMalpha—FBS 2%—P/S 0.1% (control condition); MEMalpha—FBS 10%—P/S 0.1% (control condition). The cells were placed at 37° C. in a humid environment and under 5% CO2, and medium was changed twice a week. […] thus was changed with: MEMalpha—ATRA […]—FBS 2%—P/S 0.1%; MEMalpha—ATRA 20 μM—FBS 10%—P/S 0.1%; MEMalpha—FBS 2%—P/S 0.1% (control condition); MEMalpha—FBS 10%—P/S 0.1% (control condition). The cells were placed at 37° C. in a humid environment and under 5% CO2. Medium was changed twice a week. On Day 15 (D15), cells were harvested by trypsinization for mRNA extraction or fixed immunocytochemical analysis.

The test system is the same in assay [2]. The assay is described as follows: Neural differentiation of hMSCs: gene expression by real-time PCR. How it is done: as §1
On Day 0 (D0), hMSC were seeded at a concentration of 3,000 cells/cm^2 in pre-coated 25 cm^2 flasks or 12-well culture plates in complete medium and culture was placed at 37° C. in a humid environment and under 5% CO2. After 24h, medium was changed and replaced by different combinations of media containing either: MEMalpha—bFGF 12.5 ng/mL—FBS 2%—P/S 0.1%; MEMalpha—bFGF 12.5 ng/mL—FBS 10%—P/S 0.1%; MEMalpha—FBS 2%—P/S 0.1% (control condition); MEMalpha—FBS 10%—P/S 0.1% (control condition). The cells were placed at 37° C. in a humid environment and under 5% CO2, and medium was changed twice a week. On Day 8, medium was replaced by medium containing ATRA in the place of bFGF and thus was changed with: MEMalpha—ATRA […]—FBS 2%—P/S 0.1%; MEMalpha—ATRA 20 μM—FBS 10%—P/S 0.1%; MEMalpha—FBS 2%—P/S 0.1% (control condition); MEMalpha—FBS 10%—P/S 0.1% (control condition). The cells were placed at 37° C. in a humid environment and under 5% CO2. Medium was changed twice a week. […]
Total RNA was extracted using RNAeasy total purification kit following instructions of the manufacturer (Qiagen). cDNA were generated using a High-Capacity cDNA Reverse Transcription kit (Applied Biosystems) as described by the manufacturer.
The expression levels of genes (GFAP, Musashi 1, Nestin, Beta3-Tubuline, MAP-2 and GAPDH) were analyzed by real-time PCR using TaqMan gene Expression Master Mix (Applied Biosystems) on the Applied Biosystems 7900 Real time PCR system (Life technologies). Samples were analyzed in triplicates. Data were normalized using the GAPDH gene as an internal control and relative quantification (RQ) of the genes in a sample was determined according to the equation 2^−Δct.

Assay [3] shares this test system. Kind of assay: Neural differentiation of hMSCs: immunocytochemical analysis (Nestin, MAP-2). To be noted: bFGF; for MAP-2 marker expression (immunocytochemistry staining) / Nestine marker expression (immunocytochemistry staining): 2% FBS, with or without peptide coating (FIG. 8); for Nestine expression (staining intensity): with or without peptide coating, compared to the control condition (FIG. 8). As to the method:
as §1
On Day 0 (D0), hMSC were seeded at a concentration of 3,000 cells/cm^2 in pre-coated 25 cm^2 flasks or 12-well culture plates in complete medium and culture was placed at 37° C. in a humid environment and under 5% CO2. After 24h, medium was changed and replaced by different combinations of media containing either: MEMalpha—bFGF 12.5 ng/mL—FBS 2%—P/S 0.1%; MEMalpha—bFGF 12.5 ng/mL—FBS 10%—P/S 0.1%; MEMalpha—FBS 2%—P/S 0.1% (control condition); MEMalpha—FBS 10%—P/S 0.1% (control condition). The cells were placed at 37° C. in a humid environment and under 5% CO2, and medium was changed twice a week. On Day 8, medium was replaced by medium containing ATRA in the place of bFGF and thus was changed with: MEMalpha—ATRA […]—FBS 2%—P/S 0.1%; MEMalpha—ATRA 20 μM—FBS 10%—P/S 0.1%; MEMalpha—FBS 2%—P/S 0.1% (control condition); MEMalpha—FBS 10%—P/S 0.1% (control condition). The cells were placed at 37° C. in a humid environment and under 5% CO2. Medium was changed twice a week. On Day 15 (D15), cells were harvested by trypsinization for mRNA extraction or fixed immunocytochemical analysis.
Assessment of differentiation was performed by gene expression after extraction of mRNA at various time point (DO, D1, D8 and D15), and immunocytochemical analysis performed at the end of the culture period (D15).
Immunocytochemical analyses were carried out on cells fixed in 4% paraformaldehyde and using standard protocols. After blocking with Triton 1×0.1%/BSA 5% during 30 min, cells were incubated with antibodies directed against Nestin (Millipore) or MAP-2 (Sigma) overnight at +4° C. After washing, appropriate FITC or Cyandidine-5 labelled secondary antibody are added. Nuclei were counterstained with Hoescht 33258 (Sigma). Obervations were performed using Leica TCS LSI system.

The mark [4] stands for this setting: patient no 1, day 5, bFGF 10% without ATRA (FIG. 6).
The mark [5] stands for this setting: patient no 1, bFGF 10% without ATRA (FIG. 6).
Where [6] appears, read: patient no 1, bFGF 10% without ATRA, with respect to J0 (FIG. 6).
The mark [7] stands for this setting: patient no 2, bFGF 10% without ATRA (FIG. 7).
[8] abbreviates: patient no 2, bFGF 10% without ATRA, with respect to J0 (FIG. 7).

Square brackets hold non-standard residues; d marks the D form. Ends that are not written are not given here. Abu = CC[C@H](N)C(=O)O

As to “W-S-G-W-S-S-Abu-S-R-S-Nm (WSGWSS[Abu]SRS-NH2; N-terminus assumed; SMILES CC[C@H](NC(=O)[C@H](CO)NC(=O)[C@H](CO)NC(=O)[C@H](Cc1c[nH]c2ccccc12)NC(=O)CNC(=O)[C@H](CO)NC(=O)[C@@H](N)Cc1c[nH]c2ccccc12)C(=O)N[C@@H](CO)C(=O)N[C@@H](CCCNC(=N)N)C(=O)N[C@@H](CO)C(N)=O) [NS640]”, in assay [1], the “effect on cell proliferation (number of MSCs)” value is recorded as “no effect”. Moreover, the “effect of peptide coating on the increase in Nestin, βIII-Tubulin and MAP-2 gene expression” value in assay [2] (bFGF then ATRA, 2% FBS, peptide coating 80 μg/cm2) is listed as “does not modify this increase”. In addition, the MAP-2 expression in assay [2] (bFGF then ATRA, 10% FBS, peptide coating, vs ×0.75 without peptide (FIG. 5)) is 1.46 ×. Moreover, the Nestin expression in assay [2] (bFGF then ATRA, 10% FBS, peptide coating, vs ×1.2 without peptide (FIG. 5)) turned out to be 1.5 ×. Also, the Nestin expression in assay [2] (setting [4]) was found to be 2 ×. For the same molecule, the βIII-Tubuline expression entry in assay [2] (patient no 2, after 5 days of culture, with bFGF (FIG. 7)) is given as “maximized”. In assay [3], the “MAP-2 marker expression (immunocytochemistry staining)” value was “stronger staining” and the “Nestine marker expression (immunocytochemistry staining)” value was “stronger staining”. The MAP-2 protein presence entry in assay [3] (10% FBS, peptide coating (FIG. 8)) is “makes possible to observe MAP-2 protein presence”. The “Nestine expression (staining intensity)” value in assay [3] (10% FBS) was “maximized”.

Turning to “bFGF: growth factor added to the hMSC culture medium at 12.5 ng/mL”, the “effect on cell proliferation (number of MSCs)” value in assay [1] is on record as “positive effect”. Further, the “Induction of gene expression: MAP-2 P2” value in assay [2] (2% FBS, Patient no2) is on record as 3. The Musashi-1 expression entry in assay [2] (setting [5]) and in assay [2] (setting [7]) was “decrease” in each case. Moreover, the Nestin expression entry is “decrease” in assay [2] (setting [5]); 0.6 × in assay [2] (setting [4]); “decrease” in assay [2] (setting [7]); 0.6 × in assay [2] (patient no 2, bFGF 10% without ATRA, with or without coating (FIG. 7)). Further, the “expression of MAP-2” value in assay [2] (setting [6]) and in assay [2] (setting [8]) was 2.3 × each time. For the same molecule, the “expression of βIII Tubulin” value in assay [2] (setting [6]) and in assay [2] (setting [8]) was 9.3 × each time. The MAP-2 expression result in assay [2] (patient no 2, D5, with bFGF (FIG. 7)) was “decreased”. In assay [3], the “MAP-2 marker expression (immunocytochemistry staining)” value is listed as “increases the expression”. Also, the “Nestine marker expression (immunocytochemistry staining)” value in assay [3] is “increases the expression”. Further, in assay [3] (10% FBS), the “Nestine expression (staining intensity)” value is recorded as “increases Nestine expression”.

With `CC1=C(/C=C/C(C)=C/C=C/C(C)=C/C(=O)O)C(C)(C)CCC1` [ATRA, reference compound], the “number of MSC” value in assay [1] (2% FBS) is “small difference”; in assay [1] (10% FBS), “decrease”.

Source of the values: patent US20200080053A1, “USE OF PEPTIDE COMPOUNDS FOR PROMOTING SURVIVAL, GROWTH AND CELL DIFFERENTIATION” (Axoltis Pharma, priority 2016, published 2020).
